Results: publication PMC12373846, “Hemoglobin as a pseudoperoxidase and drug target for oxidative stress-related diseases” (Signal Transduction and Targeted Therapy, 2025)

Key:
APP/PS1 mice = assay: Novel place recognition test, APP/PS1 mice; assay type: in vivo, mouse
Procedure: For an animal model of AD, both sexes of 10- to 18-month-old APP/PS1 mice were maintained and used as previously described.[76],[77] To test the effects of novel H2O2-decomposing enhancers in the AD model, the mice were treated by i.p. injection with KDS12008 (3 mg/kg/day), KDS12017 (3 mg/kg/day), or KDS12025 (3 or 10 mg/kg/day) once per day for 1 or 2 weeks, depending on the experimental protocol. All drugs were dissolved in 200 μl of saline, and the amount of each drug was calculated on the basis of the weight (kg) of the mouse. Moreover, KDS12025 (3 mg/kg/day) was orally administered to the AD model for 2 weeks ad libitum.
Before the novel place recognition (NPR) test, the mice were subjected to sufficient handling and were concurrently habituated to an open field test (OFT) in a square chamber (40 × 40 × 40 cm). After habituation, the mice were placed in the open field with two identical objects positioned in the first and second quadrants of the cage. The mice were allowed to explore the objects freely for 10 min and then returned to their home cages for 1 h. To test spatial recognition memory, one of the two identical objects was placed in a novel place (quadrant), and the mice were re-entered into the open field chamber for 10 min. The discrimination index (DI) was calculated as the percentage of time spent on the novel place over the total time spent on both the novel and the familiar place. Frequencies were quantified via EthoVision XT software (Noldus, Netherlands).
The mice were deeply anesthetized with vaporized 1% isoflurane and placed into stereotaxic frames (RWD Life Science, China). Following an incision on the midline of the scalp, a hole was drilled into the skull above the hippocampus. AAV-GFAP104-GFP or AAV-GFAP104-DTR-GFP was bilaterally microinjected into the hippocampal CA1 region (AP, −2.0 mm; ML, ±1.5 mm; DV, −1.65 mm from the bregma). Diphtheria toxin (2 mg/ml) was administered for 16 days as previously described.[77] For shRNA knockdown, AAV-pSicoR-Hbβ-shRNA-mCherry or AAV-pSicoR-Sc-shRNA-mCherry was microinjected into the same coordinate system. A total of 0.8 µl of the virus was injected via a syringe pump (KD Scientific, USA). The injection procedures were implemented before 5 weeks of the experiments. For cell type-specific knockdown, AAV-pSico-Hbβ-shRNA-GFP or AAV-pSico-Sc-shRNA-GFP was combined with either AAV-CaMKII-Cre-mCherry for neuronal targeting or AAV-GFAP-Cre-mCherry for astrocyte targeting. The viruses were bilaterally injected into the hippocampus and substantia nigra via the same stereotaxic coordinates and injection procedures. All viruses used in this study were produced at the Institute for Basic Science virus facility (IBS virus facility, Korea). To investigate the effects of 0.1 mg/kg/day KDS12025, GiD mice were injected with diphtheria toxin (2 mg/ml) daily for 16 days. Concurrently, KDS12025 was administered ad libitum (0.1 mg/kg/day) during the same period.

CIA DBA1 mice = assay: CIA mouse model of rheumatoid arthritis; assay type: in vivo; parameters: matrix, toluidine blue (Fig. S20m) / surface regularity, toluidine blue (Fig. S20n) / CIA score at day 42 (Fig. S20c) / area under the curve (AUC) of symptom severity (Fig. S20e): scale not given here; cartilage thickness, toluidine blue (Fig. S20o): unit not given here
Procedure: CIA was induced in DBA1 mice by intradermal injection of type II collagen emulsified in Complete Freund's Adjuvant (CFA) on day 0, followed by a booster injection of type II collagen in Incomplete Freund's Adjuvant (IFA) on day 21. Starting from day 23, mice were administered KDS12025 in drinking ad libitum at doses of 0, 0.1, or 1 mg/kg/day until day 42. To assess joint inflammation and cartilage thickness in CIA mice, joint samples were collected and fixed in 10% formalin. The samples were then decalcified, embedded in paraffin, and sectioned. For histological evaluation, sections were stained with H&E to assess inflammation and with Toluidine Blue to evaluate cartilage thickness. The stained sections were examined under a light microscope, and images were captured for quantitative analysis of inflammatory cell infiltration and cartilage integrity.

CDK3 = biological target: T1, CDK3 (Homo sapiens, UniProt Q00526); assay: KINOMEscan; assay type: binding; conditions: 10000 nM; read-out: Percent Control
T1 construct: purchased DiscoverX KINOMEscan scanEDGE; Eurofins Cerep SafetyScreen87
Procedure: (§1) The possibility of KDS12025 on kinase off-target, the KINOMEscan panel of scanEDGE assay was conducted in DiscoverX (CA, USA) using a site-directed competition binding with the test compounds. The assay results are given in Supplementary Table 4 and experimental information is available on the DiscoverX web page (www.discoverx.com). Moreover, the Delta SafetyScreen87 panel assay was conducted in Eurofins Discovery (Cerep, France). The assay results are given in Supplementary Table 5 and experimental information is available on the DiscoverX web page (https://www.eurofinsdiscoveryservices.com).

CSNK1G2 = biological target: T2, CSNK1G2 (Homo sapiens, UniProt P78368); assay: KINOMEscan; assay type: binding; conditions: 10000 nM; read-out: Percent Control
T2 construct: purchased DiscoverX KINOMEscan scanEDGE; Eurofins Cerep SafetyScreen87
Procedure: as §1

JNK3 = biological target: T3, JNK3 (Homo sapiens, UniProt P53779); assay: KINOMEscan; assay type: binding; conditions: 10000 nM; read-out: Percent Control
T3 construct: purchased DiscoverX KINOMEscan scanEDGE; Eurofins Cerep SafetyScreen87
Procedure: as §1

KIT = biological target: T4, KIT (Homo sapiens, UniProt P10721); assay: KINOMEscan; assay type: binding; conditions: 10000 nM; read-out: Percent Control
T4 construct: purchased DiscoverX KINOMEscan scanEDGE; Eurofins Cerep SafetyScreen87
Procedure: as §1

RAF1 = biological target: T5, RAF1 (Homo sapiens, UniProt P04049); assay: KINOMEscan; assay type: binding; conditions: 10000 nM; read-out: Percent Control
T5 construct: purchased DiscoverX KINOMEscan scanEDGE; Eurofins Cerep SafetyScreen87
Procedure: as §1

TGFBR1 = biological target: T6, TGFBR1 (Homo sapiens, UniProt P36897); assay: KINOMEscan; assay type: binding; conditions: 10000 nM; read-out: Percent Control
T6 construct: purchased DiscoverX KINOMEscan scanEDGE; Eurofins Cerep SafetyScreen87
Procedure: as §1

TRKA = biological target: T7, TRKA (Homo sapiens, UniProt P04629); assay: KINOMEscan; assay type: binding; conditions: 10000 nM; read-out: Percent Control
T7 construct: purchased DiscoverX KINOMEscan scanEDGE; Eurofins Cerep SafetyScreen87
Procedure: as §1

TSSK1B = biological target: T8, TSSK1B (Homo sapiens, UniProt Q9BXA7); assay: KINOMEscan; assay type: binding; conditions: 10000 nM; read-out: Percent Control
T8 construct: purchased DiscoverX KINOMEscan scanEDGE; Eurofins Cerep SafetyScreen87
Procedure: as §1

ULK2 = biological target: T9, ULK2 (Homo sapiens, UniProt Q8IYT8); assay: KINOMEscan; assay type: binding; conditions: 10000 nM; read-out: Percent Control
T9 construct: purchased DiscoverX KINOMEscan scanEDGE; Eurofins Cerep SafetyScreen87
Procedure: as §1

T4 sequence (P10721 26-976): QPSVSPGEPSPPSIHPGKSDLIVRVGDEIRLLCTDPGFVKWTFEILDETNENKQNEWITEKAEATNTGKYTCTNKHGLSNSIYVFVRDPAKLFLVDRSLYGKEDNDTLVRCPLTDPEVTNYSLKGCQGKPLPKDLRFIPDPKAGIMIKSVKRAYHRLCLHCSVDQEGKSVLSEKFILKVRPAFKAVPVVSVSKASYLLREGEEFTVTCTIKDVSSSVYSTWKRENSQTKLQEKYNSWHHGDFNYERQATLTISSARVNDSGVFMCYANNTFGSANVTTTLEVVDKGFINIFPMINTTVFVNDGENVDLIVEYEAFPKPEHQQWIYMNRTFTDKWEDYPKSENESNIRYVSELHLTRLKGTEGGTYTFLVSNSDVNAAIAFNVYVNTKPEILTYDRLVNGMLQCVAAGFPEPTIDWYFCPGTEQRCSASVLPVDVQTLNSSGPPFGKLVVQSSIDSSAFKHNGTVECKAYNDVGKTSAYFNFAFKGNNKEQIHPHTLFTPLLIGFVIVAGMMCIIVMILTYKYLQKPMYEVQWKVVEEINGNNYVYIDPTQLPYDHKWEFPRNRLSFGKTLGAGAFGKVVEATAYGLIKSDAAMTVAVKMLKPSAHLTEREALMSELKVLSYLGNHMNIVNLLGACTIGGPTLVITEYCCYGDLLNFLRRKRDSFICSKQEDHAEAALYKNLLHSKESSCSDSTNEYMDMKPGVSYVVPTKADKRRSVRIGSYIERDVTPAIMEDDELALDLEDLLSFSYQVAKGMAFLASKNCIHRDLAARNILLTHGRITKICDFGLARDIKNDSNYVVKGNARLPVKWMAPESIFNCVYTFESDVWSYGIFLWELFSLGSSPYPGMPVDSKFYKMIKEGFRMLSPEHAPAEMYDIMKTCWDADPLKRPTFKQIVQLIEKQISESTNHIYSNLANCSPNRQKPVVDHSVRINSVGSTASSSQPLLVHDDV
T3 sequence (P53779 whole entry): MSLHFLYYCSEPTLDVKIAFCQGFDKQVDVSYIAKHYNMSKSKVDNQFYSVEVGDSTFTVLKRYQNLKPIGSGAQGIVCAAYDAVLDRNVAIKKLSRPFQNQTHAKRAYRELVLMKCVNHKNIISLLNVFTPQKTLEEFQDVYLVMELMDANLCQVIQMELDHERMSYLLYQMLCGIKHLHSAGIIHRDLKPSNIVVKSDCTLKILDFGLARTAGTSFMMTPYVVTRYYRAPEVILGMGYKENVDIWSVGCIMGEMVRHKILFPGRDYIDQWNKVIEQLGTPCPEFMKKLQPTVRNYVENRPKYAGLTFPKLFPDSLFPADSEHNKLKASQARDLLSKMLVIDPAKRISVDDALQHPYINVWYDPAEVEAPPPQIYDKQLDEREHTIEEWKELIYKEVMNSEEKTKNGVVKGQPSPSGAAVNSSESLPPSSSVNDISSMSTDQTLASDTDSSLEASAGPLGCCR
T9 sequence (Q8IYT8 whole entry): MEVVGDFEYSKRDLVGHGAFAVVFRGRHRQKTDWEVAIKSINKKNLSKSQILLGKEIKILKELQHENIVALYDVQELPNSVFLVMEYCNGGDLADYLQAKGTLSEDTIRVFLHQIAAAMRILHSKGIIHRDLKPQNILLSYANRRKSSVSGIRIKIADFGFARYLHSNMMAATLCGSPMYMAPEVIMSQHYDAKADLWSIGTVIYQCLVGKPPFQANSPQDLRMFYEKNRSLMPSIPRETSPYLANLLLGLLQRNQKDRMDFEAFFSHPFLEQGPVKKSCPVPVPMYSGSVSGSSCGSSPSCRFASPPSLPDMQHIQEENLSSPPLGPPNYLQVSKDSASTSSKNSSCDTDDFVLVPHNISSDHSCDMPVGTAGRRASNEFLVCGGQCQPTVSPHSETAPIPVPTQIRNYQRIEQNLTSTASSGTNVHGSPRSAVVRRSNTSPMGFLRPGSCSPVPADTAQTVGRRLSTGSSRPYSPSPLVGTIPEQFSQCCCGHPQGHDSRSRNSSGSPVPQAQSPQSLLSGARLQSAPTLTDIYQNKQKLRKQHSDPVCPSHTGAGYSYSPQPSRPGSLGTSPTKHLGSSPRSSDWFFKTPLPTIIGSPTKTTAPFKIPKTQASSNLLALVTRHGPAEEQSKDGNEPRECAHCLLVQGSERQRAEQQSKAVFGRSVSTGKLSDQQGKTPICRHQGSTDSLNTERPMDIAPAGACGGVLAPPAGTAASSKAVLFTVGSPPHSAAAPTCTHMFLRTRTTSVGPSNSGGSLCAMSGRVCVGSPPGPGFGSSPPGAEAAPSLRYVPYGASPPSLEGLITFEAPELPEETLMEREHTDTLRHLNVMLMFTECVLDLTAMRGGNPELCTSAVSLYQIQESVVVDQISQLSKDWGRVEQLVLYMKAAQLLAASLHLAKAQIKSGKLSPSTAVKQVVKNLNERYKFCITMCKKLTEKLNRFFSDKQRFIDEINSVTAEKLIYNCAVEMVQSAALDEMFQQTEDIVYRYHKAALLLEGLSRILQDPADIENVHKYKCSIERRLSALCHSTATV
T1 sequence (Q00526 whole entry): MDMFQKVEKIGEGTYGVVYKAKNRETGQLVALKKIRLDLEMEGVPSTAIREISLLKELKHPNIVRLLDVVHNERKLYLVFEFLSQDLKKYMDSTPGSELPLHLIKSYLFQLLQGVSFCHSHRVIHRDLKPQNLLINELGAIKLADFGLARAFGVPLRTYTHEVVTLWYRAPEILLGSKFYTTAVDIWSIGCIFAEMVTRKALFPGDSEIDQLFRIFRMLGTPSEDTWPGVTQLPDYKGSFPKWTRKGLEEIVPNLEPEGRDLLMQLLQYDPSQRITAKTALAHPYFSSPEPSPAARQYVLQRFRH
T6 sequence (P36897 34-503): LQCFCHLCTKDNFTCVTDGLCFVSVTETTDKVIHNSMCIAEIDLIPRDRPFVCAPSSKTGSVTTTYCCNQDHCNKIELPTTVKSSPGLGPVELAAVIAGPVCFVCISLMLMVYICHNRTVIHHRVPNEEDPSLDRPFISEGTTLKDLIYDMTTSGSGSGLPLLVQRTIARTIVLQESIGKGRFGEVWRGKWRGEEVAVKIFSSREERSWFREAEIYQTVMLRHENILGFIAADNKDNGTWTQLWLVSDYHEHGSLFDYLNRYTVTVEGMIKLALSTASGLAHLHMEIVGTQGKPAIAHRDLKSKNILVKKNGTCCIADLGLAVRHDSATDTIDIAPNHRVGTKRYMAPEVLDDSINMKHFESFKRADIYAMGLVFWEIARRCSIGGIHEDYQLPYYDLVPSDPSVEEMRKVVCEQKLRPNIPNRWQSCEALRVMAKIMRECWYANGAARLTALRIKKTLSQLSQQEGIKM
T7 sequence (P04629 33-796): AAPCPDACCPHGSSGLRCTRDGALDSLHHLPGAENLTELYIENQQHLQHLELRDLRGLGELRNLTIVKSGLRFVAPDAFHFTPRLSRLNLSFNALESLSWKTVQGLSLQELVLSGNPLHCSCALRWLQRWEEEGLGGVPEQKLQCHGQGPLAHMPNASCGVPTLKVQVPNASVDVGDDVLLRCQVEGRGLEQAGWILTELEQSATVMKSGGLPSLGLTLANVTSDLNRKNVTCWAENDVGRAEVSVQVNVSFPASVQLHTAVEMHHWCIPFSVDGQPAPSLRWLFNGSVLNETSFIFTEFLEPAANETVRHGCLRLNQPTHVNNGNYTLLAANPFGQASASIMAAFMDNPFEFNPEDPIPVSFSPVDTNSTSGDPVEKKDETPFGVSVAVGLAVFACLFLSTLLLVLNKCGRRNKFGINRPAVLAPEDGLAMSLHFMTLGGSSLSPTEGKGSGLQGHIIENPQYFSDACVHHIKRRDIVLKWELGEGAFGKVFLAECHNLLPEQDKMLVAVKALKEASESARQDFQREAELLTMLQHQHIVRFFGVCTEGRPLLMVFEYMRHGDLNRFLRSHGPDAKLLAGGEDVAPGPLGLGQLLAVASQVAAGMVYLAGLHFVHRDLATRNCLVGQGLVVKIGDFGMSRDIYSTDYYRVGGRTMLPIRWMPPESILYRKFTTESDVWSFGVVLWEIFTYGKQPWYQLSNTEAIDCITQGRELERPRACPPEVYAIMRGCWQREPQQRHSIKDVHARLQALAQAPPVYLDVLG
T8 sequence (Q9BXA7 whole entry): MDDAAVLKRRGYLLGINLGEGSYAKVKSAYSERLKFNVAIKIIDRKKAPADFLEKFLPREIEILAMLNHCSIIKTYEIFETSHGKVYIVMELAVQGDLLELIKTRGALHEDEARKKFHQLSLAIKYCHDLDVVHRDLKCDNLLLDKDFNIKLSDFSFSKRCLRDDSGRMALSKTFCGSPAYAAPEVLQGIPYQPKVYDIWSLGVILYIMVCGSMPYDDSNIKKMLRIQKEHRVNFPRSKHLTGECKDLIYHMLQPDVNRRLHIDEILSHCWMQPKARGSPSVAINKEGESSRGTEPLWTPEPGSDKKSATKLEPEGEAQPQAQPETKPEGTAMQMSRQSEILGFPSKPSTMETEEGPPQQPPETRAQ
T5 sequence (P04049 whole entry): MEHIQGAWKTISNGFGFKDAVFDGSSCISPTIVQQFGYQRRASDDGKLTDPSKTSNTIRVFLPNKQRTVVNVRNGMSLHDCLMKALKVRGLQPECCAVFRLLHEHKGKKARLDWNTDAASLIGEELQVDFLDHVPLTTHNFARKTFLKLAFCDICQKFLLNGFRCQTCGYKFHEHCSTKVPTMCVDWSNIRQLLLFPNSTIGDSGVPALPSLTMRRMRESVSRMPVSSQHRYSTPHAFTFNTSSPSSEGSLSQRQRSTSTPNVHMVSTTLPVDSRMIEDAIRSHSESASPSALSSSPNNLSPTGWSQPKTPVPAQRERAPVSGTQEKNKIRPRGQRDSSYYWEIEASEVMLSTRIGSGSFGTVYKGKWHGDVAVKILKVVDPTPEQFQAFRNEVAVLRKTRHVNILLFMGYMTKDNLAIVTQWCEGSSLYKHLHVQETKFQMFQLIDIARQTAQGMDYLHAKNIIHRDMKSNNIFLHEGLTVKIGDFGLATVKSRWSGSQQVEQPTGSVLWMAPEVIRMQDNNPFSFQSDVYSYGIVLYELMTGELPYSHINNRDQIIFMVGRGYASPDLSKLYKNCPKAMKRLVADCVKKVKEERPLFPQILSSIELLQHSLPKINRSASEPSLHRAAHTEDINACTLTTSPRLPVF

Question: Which NPR discrimination index (APP/PS1 mice; APP+KDS12025 3 mg/kg/day ad libitum, Fig. 5n) does the source give for CNc1ccc(NCCc2ccccc2OC)cc1.Cl [KDS12025, N^1-(2-methoxyphenethyl)-N^4-methylbenzene-1,4-diamine hydrochloride salt] here?
Answer: WT (0.2560±0.07604, n=6), APP (-0.0956±0.05233, n=5), APP+KDS12025 (ad libitum) (0.2057±0.04843, n=6) One-way ANOVA with Tukey's multiple comparisons test, F(2,14) = 8.997, p = 0.003 WT vs. APP, p = 0.004; WT vs. APP+KDS12025 (ad libitum), p = 0.82; APP vs. APP+KDS12025 (ad libitum), p = 0.01

Question: What about the NPR discrimination index (APP/PS1 mice; APP+ScRNA+KDS12025, Fig. 6g) of the same compound?
Answer: 0.46±0.09

Question: What about the NPR discrimination index (APP/PS1 mice; APP+shHbβ+KDS12025, Fig. 6g) of the same compound?
Answer: -0.06±0.082

Question: And the NPR discrimination index (APP/PS1 mice; APP+shHbβ::CaMKII+KDS12025, Fig. 6l)?
Answer: 0.24±0.08

Question: What about the NPR discrimination index (APP/PS1 mice; APP+shHbβ::GFAP+KDS12025, Fig. 6l) of the same compound?
Answer: -0.04±0.059

Question: What about the “CIA score at day 42 (Fig. S20c)” value (CIA DBA1 mice; 0.1 MPK) of the same compound?
Answer: 9.5±1.133

Question: And the “area under the curve (AUC) of symptom severity (Fig. S20e)” value (CIA DBA1 mice; 0.1 MPK)?
Answer: 54.17±15.02

Question: What about the “body weight difference (Fig. S20p)” value (CIA DBA1 mice; 0.1 MPK) of the same compound?
Answer: 93±0.5%

Question: What about the “bone erosion, H&E (Fig. S20k)” value (CIA DBA1 mice; 0.1 MPK) of the same compound?
Answer: 0.852±0.3905

Question: And the “cartilage destruction, H&E (Fig. S20i)” value (CIA DBA1 mice; 0.1 MPK)?
Answer: 1.5±0.2949

Question: And the “cartilage thickness, toluidine blue (Fig. S20o)” value (CIA DBA1 mice; 0.1 MPK)?
Answer: 0.85±0.2018

Question: And the “matrix, toluidine blue (Fig. S20m)” value (CIA DBA1 mice; 0.1 MPK)?
Answer: 1.504±0.3303

Question: What about the “pannus formation, H&E (Fig. S20j)” value (CIA DBA1 mice; 0.1 MPK) of the same compound?
Answer: 0.9±0.3929

Question: And the “paw volume (Fig. S20f)” value (CIA DBA1 mice; 0.1 MPK)?
Answer: 0.1383 ± 0.0074 mL

Question: What about the “surface regularity, toluidine blue (Fig. S20n)” value (CIA DBA1 mice; 0.1 MPK) of the same compound?
Answer: 1.352±0.3083

Question: What about the “synovial hyperplasia, H&E (Fig. S20h)” value (CIA DBA1 mice; 0.1 MPK) of the same compound?
Answer: 1.338±0.2985

Question: What about the “CIA score at day 42 (Fig. S20c)” value (CIA DBA1 mice; 1 MPK) of the same compound?
Answer: 6.583±0.7002

Question: What about the “area under the curve (AUC) of symptom severity (Fig. S20e)” value (CIA DBA1 mice; 1 MPK) of the same compound?
Answer: 25.0±9.129

Question: What about the “body weight difference (Fig. S20p)” value (CIA DBA1 mice; 1 MPK) of the same compound?
Answer: 100.7±0.4%

Question: And the “bone erosion, H&E (Fig. S20k)” value (CIA DBA1 mice; 1 MPK)?
Answer: 0.338±0.2928

Question: What about the “cartilage destruction, H&E (Fig. S20i)” value (CIA DBA1 mice; 1 MPK) of the same compound?
Answer: 0.966±0.2183

Question: What about the “cartilage thickness, toluidine blue (Fig. S20o)” value (CIA DBA1 mice; 1 MPK) of the same compound?
Answer: 0.652±0.1825

Question: And the “matrix, toluidine blue (Fig. S20m)” value (CIA DBA1 mice; 1 MPK)?
Answer: 0.988±0.2547

Question: What about the “pannus formation, H&E (Fig. S20j)” value (CIA DBA1 mice; 1 MPK) of the same compound?
Answer: 0.338±0.2928

Question: And the “paw volume (Fig. S20f)” value (CIA DBA1 mice; 1 MPK)?
Answer: 0.1183 ± 0.0047 mL

Question: What about the “surface regularity, toluidine blue (Fig. S20n)” value (CIA DBA1 mice; 1 MPK) of the same compound?
Answer: 0.95±0.2009

Question: What about the “synovial hyperplasia, H&E (Fig. S20h)” value (CIA DBA1 mice; 1 MPK) of the same compound?
Answer: 0.7620±0.3263

Question: What about the remaining binding at 10 µM (CDK3) of the same compound?
Answer: 79%

Question: And the remaining binding at 10 µM (CSNK1G2)?
Answer: 45%

Question: What about the remaining binding at 10 µM (JNK3) of the same compound?
Answer: 68%

Question: What about the remaining binding at 10 µM (KIT) of the same compound?
Answer: 90%

Question: What about the remaining binding at 10 µM (RAF1) of the same compound?
Answer: 95%

Question: And the remaining binding at 10 µM (TGFBR1)?
Answer: 96%

Question: What about the remaining binding at 10 µM (TRKA) of the same compound?
Answer: 100%

Question: And the remaining binding at 10 µM (TSSK1B)?
Answer: 45%

Question: And the remaining binding at 10 µM (ULK2)?
Answer: 95%
